Assay results: patent publication US20250263395A1, “COMPOUNDS THAT MEDIATE PROTEIN DEGRADATION AND METHODS OF USE THEREOF” (Monte Rosa Therapeutics AG, priority 2022, published 2025)

Experiments:
CRBN-DDB1 = CRBN-DDB1 (Homo sapiens (Human), UniProt Q96SW2); assay: CRBN HTRF assay (Cy5-Thalidomide probe displacement); type: binding; details: CRBN-DDB1 2.5 nM, Cy5-Thalidomide 100 nM, 30 min; Ki from geometric mean IC50 by Cheng-Prusoff
Method in brief: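 HTRF displacement of Cy5-thalidomide probe (100 nM) from His-CRBN-DDB1 (2.5 nM) with anti-His terbium cryptate, in HEPES/NaCl/TCEP/EDTA/Tween20 buffer. 10-point 1:3 compound series, 30 min at ambient temperature; signal normalised to DMSO and lenalidomide controls, IC50 fitted and Ki derived by Cheng-Prusoff.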

CDK2 = CDK2 (Homo sapiens (Human), UniProt P24941); assay: CDK2 NanoBiT assay (HiBiT-tagged CDK2 degradation); type: cell-based; details: HEK293, HEK293 clonal line, C-terminal HiBiT tag on CDK2, LgBiT; 24 hours
Method in brief: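 HEK293 line with CRISPR knock-in C-terminal HiBiT-tagged CDK2 and stable LgBiT, preincubated 16 h with live-cell substrate, then compound-treated 24 h at 37° C, 5% CO2 (30 μM stock). Luminescence normalized to plate negative and positive controls; EC50 from 3-parameter logistic fit, Hill slope 1.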

CRBN-DDB1, sequence (Q96SW2 whole entry): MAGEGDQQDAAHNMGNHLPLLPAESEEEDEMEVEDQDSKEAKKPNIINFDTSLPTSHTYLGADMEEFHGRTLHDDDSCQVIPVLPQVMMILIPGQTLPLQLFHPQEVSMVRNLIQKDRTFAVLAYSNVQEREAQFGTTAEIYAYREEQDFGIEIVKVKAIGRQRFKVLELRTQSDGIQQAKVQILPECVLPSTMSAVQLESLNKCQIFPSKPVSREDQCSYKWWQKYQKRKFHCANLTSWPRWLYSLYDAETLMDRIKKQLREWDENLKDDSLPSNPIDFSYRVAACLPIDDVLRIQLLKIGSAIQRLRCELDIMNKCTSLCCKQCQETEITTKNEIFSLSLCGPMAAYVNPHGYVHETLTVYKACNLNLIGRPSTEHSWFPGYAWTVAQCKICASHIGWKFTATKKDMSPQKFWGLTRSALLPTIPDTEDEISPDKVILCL
CRBN-DDB1, sequence (Q16531 whole entry partner): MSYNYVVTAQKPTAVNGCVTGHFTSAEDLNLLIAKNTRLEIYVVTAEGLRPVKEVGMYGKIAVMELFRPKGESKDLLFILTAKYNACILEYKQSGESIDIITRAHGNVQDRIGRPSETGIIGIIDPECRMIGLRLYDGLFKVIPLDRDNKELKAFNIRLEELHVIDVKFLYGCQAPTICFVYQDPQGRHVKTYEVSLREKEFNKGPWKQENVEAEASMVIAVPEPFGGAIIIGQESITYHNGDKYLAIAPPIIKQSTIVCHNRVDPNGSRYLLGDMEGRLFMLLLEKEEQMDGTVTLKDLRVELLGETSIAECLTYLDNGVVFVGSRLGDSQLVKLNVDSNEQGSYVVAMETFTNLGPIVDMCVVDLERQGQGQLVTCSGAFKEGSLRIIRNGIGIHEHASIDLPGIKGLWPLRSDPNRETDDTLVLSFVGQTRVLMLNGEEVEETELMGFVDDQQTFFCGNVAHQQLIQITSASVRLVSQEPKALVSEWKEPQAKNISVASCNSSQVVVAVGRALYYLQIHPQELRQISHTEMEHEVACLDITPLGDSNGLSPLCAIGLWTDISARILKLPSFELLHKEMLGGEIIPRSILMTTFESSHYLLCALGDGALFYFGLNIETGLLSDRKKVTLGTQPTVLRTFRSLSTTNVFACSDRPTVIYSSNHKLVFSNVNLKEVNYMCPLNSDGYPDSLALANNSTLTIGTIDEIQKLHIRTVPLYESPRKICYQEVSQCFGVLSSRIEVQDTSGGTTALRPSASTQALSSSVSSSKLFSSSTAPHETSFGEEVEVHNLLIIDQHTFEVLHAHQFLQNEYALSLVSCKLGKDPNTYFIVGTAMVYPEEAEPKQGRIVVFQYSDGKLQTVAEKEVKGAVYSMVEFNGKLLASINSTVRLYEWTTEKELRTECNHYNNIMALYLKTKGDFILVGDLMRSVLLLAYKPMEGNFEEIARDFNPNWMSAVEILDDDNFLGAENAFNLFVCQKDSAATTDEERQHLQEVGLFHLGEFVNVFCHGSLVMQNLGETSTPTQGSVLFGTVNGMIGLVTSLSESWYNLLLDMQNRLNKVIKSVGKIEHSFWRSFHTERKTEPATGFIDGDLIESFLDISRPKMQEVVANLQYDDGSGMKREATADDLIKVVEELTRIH

Structure (SMILES)	Ki (CRBN-DDB1) [µM]	Dmax (CDK2) [%]
O=C1CCC(c2c(F)cc(N3CC(NC(=O)OC4CN(C(=O)c5ccc(Cl)cc5)C4)C3)cc2F)C(=O)N1 (stereo not drawn) [Compound 26, 1-(4-chlorobenzoyl)azetidin-3-yl (1-(4-(2,6-dioxopiperidin-3-yl)-3,5-difluorophenyl)azetidin-3-yl)carbamate]	≤ 0.1	50 to 80
O=C1CCC(c2c(F)cc(N3C[C@@H](NC(=O)OCC4CC5(CCC5)C4)CC3=O)cc2F)C(=O)N1 (stereo partly drawn) [Compound 57, spiro[3.3]heptan-2-ylmethyl ((3S)-1-(4-(2,6-dioxopiperidin-3-yl)-3,5-difluorophenyl)-5-oxopyrrolidin-3-yl)carbamate]	0.1 to 1	50 to 80
COc1c(N2CC(C)(Nc3nnc(-c4ccc(OC(F)(F)F)cc4)o3)C2)ccc(C2CCC(=O)NC2=O)c1F (stereo not drawn) [Compound 136, 3-(2-fluoro-3-methoxy-4-(3-methyl-3-((5-(4-(trifluoromethoxy)phenyl)-1,3,4-oxadiazol-2-yl)amino)azetidin-1-yl)phenyl)piperidine-2,6-dione]	≤ 0.1	50 to 80
O=C1CCC(c2c(F)cc([C@@H]3C[C@H]3NC(=O)OCC3CC4(CCC4)C3)cc2F)C(=O)N1 (stereo partly drawn) [Compound 38]	≤ 0.1	> 80
CN(C)C(=O)N1CC(OC(=O)NC2CN(c3cc(F)c(C4CCC(=O)NC4=O)c(F)c3)C2)C1 (stereo not drawn) [Compound 45, 1-(dimethylcarbamoyl)azetidin-3-yl (1-(4-(2,6-dioxopiperidin-3-yl)-3,5-difluorophenyl)azetidin-3-yl)carbamate]	≤ 0.1	10 to 50
CN(C(=O)N1CC(OC(=O)NC2CN(c3cc(F)c(C4CCC(=O)NC4=O)c(F)c3)C2)C1)c1ccccc1 (stereo not drawn) [Compound 17, 1-(methyl(phenyl)carbamoyl)azetidin-3-yl (1-(4-(2,6-dioxopiperidin-3-yl)-3,5-difluorophenyl)azetidin-3-yl)carbamate]	≤ 0.1	50 to 80
Cn1c(N2CC(OC(=O)NC3CN(c4cc(F)c(C5CCC(=O)NC5=O)c(F)c4)C3)C2)nc2ccccc21 (stereo not drawn) [Compound 75, 1-(1-methyl-1H-benzo[d]imidazol-2-yl)azetidin-3-yl (1-(4-(2,6-dioxopiperidin-3-yl)-3,5-difluorophenyl)azetidin-3-yl)carbamate]	≤ 0.1	50 to 80
COc1cccc(N(C)C(=O)C23CC(OC(=O)NC4CN(c5cc(F)c(C6CCC(=O)NC6=O)c(F)c5)C4)(C2)C3)c1 (stereo not drawn) [Compound 130, 3-((3-methoxyphenyl)(methyl)carbamoyl)bicyclo[1.1.1]pentan-1-yl (1-(4-(2,6-dioxopiperidin-3-yl)-3,5-difluorophenyl)azetidin-3-yl)carbamate]	≤ 0.1	50 to 80
Cc1ccc(-c2nnc(NC3CN(c4cc(F)c(C5CCC(=O)NC5=O)c(F)c4)C3)o2)cc1 (stereo not drawn) [Compound 99, 3-(2,6-difluoro-4-(3-((5-(p-tolyl)-1,3,4-oxadiazol-2-yl)amino)azetidin-1-yl)phenyl)piperidine-2,6-dione]	0.1 to 1	> 80
CC(C)(C)[Si](C)(C)O[C@H]1C[C@H](COC(=O)NC2CN(c3cc(F)c(C4CCC(=O)NC4=O)c(F)c3)C2)C1 (stereo partly drawn) [Compound 50, ((1r, 3r)-3-((tert-butyldimethylsilyl)oxy)cyclobutyl)methyl (1-(4-(2,6-dioxopiperidin-3-yl)-3,5-difluorophenyl)azetidin-3-yl)carbamate]	0.1 to 1	> 80
O=C1CCC(c2c(F)cc(N3CC(Nc4nnc(CCC5CC5)o4)C3)cc2F)C(=O)N1 (stereo not drawn) [Compound 127, 3-(4-(3-((5-(2-cyclopropylethyl)-1,3,4-oxadiazol-2-yl)amino)azetidin-1-yl)-2,6-difluorophenyl)piperidine-2,6-dione]	≤ 0.1	10 to 50
O=C1CCC(c2c(F)cc(N3CC(NC(=O)OC4CN(C(=O)N5CCCCC5)C4)C3)cc2F)C(=O)N1 (stereo not drawn) [Compound 36, 1-(piperidine-1-carbonyl)azetidin-3-yl (1-(4-(2,6-dioxopiperidin-3-yl)-3,5-difluorophenyl)azetidin-3-yl)carbamate]	≤ 0.1	50 to 80
